Source: patent US20220050096A1, “ANALYTE-SENSITIVE PROBES AND CONTACT LENS FOR DIAGNOSIS OF OCULAR PATHOLOGIES” (University Of Maryland, Baltimore, priority 2020, published 2022)

Experiment: Chloride quenching (Stern-Volmer) of SPQ-C18 in contact lenses
Type: physicochemical
Experimental: Quenching by Chloride. […] The intensities (I) and lifetimes (6) are analyzed using the Stern-Volmer equation, where F0 and τ0 are the intensities and lifetimes in the absence of chloride, and K is the quenching constant and the inverse of the [Cl^-] needed for 50% quenching. For collisional quenching, the value of F0/F and τ0/τ are typically the same. In solution, in the absence of lenses, the value of K=kq τ0 can be used to calculate the biomolecular quenching constant kq and the quenching efficiency. In the lenses, the [Cl-] may not be the same as in the bulk solution, but kq in the lenses is estimated by assuming the same concentration of chloride around the SPQ moiety in the lenses and in bulk solutions. Chloride-sensitive lenses were prepared using SPQ-C18. The quinolinium moiety in SPQ-C18 can be used for chloride sensing in tears. Its unquenched lifetime near 18.5 ns (see Table 14 and Table 15, below) which results in significant changes up to chloride concentrations of 220 mM, which is well above the physiological range. BiofinityTM and […] lenses labeled with SPQ-C18 were both found to display significant quenching at physiological concentrations of chloride near 120 mM. The emission intensities of SPQ-C18 were quenched by about 50% at this chloride concentration (FIG. 31 and FIG. 32). The emission spectra are not changed by quenching so intensity-based sensing may be different in a realworld application. […] Chloride quenching was analyzed using the Stern-Volmer equation for intensities and lifetimes (equations 7 and 8). In this analysis, we used the average lifetimes (equation 2) that is more appropriate for quenching. […] In contrast quenching of SP-PL, both intensity and lifetime, continue to decrease as the chloride concentration is increased. At the molecular level, the most interesting term is the biomolecular quenching constant kq. This value can be understood by comparison with quenching of a fluorophore in solution without any steric barriers. […] This approach for SPQ-C18 in lenses is shown in both intensities and amplitude-weighted lifetimes (FIG. 35A and FIG. 35B). […] This behavior is different from SG-PL where the binding site can be saturated at high Na^+ concentrations. In contrast, quenching of OD-MQB, both intensity and lifetime, continue to decrease as the chloride concentration increased. The steady-state intensities and intensity decays can be used to calculate the bimolecular quenching constant kq. This value can be interpreted by comparison with quenching of a fluorophore in solution without any steric barriers. […] This is the same structure of SPQ-C18 but with a shorter, three carbon propenyl chain. The unquenched lifetime (τ0) of P-MQB was 26 ns, and the Stern-Volmer constant K was 140 M^-1. […] Emission spectra and time-dependent decays were obtained (data not shown). Stern-Volmer plots were obtained in water and in a Stenfilcon A (AspireTM) contact lens by plotting the normalized intensities with respect to the added chloride concentrations.

[1] = Stenfilcon A (Aspire™) contact lens

## CCCCCCCCCCCCCCCCCC[n+]1cccc2cc(OC)ccc21 [SPQ-C18, N-Octadecyl-6-methoxyquinolinium bromide]
  reduction of quenching constant, in lens versus SPQ-C3 in buffer: 10 fold
Biofinity
  k (bimolecular quenching constant): 0.41×10^9 m-1 sec-1
  quenching constant K from lifetime measurement: 8.12 M⁻¹
MyDay
  k (bimolecular quenching constant): 0.37×10^9 m-1 sec-1
  quenching constant K from lifetime measurement: 7.44 M⁻¹
[1]
  bimolecular quenching constant: 1e+09 M⁻¹ s⁻¹
  decrease in the collision rate versus SPQ-C3 in water: 5.4
Chloride near 120 mM, Biofinity and MyDay
  quenching of emission intensities: about 50%
In lenses
  unquenched lifetime: ~18.5 ns
